Source: patent US8586603B2, “Aminotetraline derivatives” (priority 2009, dated 2013)
“And” between values parts separate entries of the source, which are not always exact repeats. Equal entries are not always repeated.

Assays:
[1] = target: T1, porcine cortical p5-HT1a serotonin receptor (Sus scrofa, UniProt A0A4X1UTF5); assay: Receptor binding assay, [3H]WAY100635 competition, porcine cortical membranes
T1 construct: membrane homogenates prepared from porcine striatal or cortical tissue; from tissue; host or cells: porcine cortex
T1 sequence (A0A4X1UTF5 1-422): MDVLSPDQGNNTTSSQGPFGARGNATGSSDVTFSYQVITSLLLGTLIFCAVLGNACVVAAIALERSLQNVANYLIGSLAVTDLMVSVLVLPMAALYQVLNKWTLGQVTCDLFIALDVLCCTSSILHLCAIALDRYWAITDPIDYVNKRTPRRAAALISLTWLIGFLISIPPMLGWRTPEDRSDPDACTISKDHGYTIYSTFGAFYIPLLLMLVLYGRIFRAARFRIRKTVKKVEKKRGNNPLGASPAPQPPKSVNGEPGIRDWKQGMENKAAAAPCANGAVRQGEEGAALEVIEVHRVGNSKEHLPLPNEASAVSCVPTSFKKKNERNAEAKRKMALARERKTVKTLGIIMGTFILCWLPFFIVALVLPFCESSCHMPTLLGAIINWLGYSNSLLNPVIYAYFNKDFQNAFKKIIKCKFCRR

[2] = test system: porcine cortical pα1 adrenergic receptor; assay: Receptor binding assay, [3H]prazosin competition, porcine cortical membranes; details: vs p5-HT1a
[3] = target: T2, porcine cortical pα1 adrenergic receptor; assay: as above; details: means of 2-8 individual experiments each done as triplicate
T2 construct: Ki pα1; other: means of 2-8 individual experiments each done as triplicate

human 5-HT1a receptor = target: T3, human 5-HT1a receptor (Homo sapiens, UniProt P08908); assay: [35S]GTPγS functional assay; type: biochemical
T3 construct: expressed in transfected cells
T3 sequence (P08908 1-422): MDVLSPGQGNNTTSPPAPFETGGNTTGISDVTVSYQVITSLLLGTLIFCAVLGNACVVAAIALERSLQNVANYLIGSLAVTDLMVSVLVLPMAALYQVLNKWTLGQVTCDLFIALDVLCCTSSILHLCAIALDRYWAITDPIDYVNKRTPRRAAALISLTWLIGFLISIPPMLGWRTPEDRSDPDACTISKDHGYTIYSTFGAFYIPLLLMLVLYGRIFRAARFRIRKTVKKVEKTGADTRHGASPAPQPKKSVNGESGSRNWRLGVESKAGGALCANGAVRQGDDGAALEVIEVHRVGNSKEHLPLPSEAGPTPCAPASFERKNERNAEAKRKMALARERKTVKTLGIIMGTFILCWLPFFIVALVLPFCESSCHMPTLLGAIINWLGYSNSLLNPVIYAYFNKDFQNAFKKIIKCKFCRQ
Description: Specific binding of [^35S]GTPγS is stimulated by activation of the stably expressed human 5-HT1a receptor in a dose-dependent way by agonists for this GPCR and is determined by measuring the radioactive label of the membrane. Non-linear regression analysis of the resulting dose-response curves yields the EC50 value in [nM] representing the half maximal concentration which is necessary to activate the receptor completely.

[4] = Pig skin permeation from saturated solution; type: in vitro ADME; details: pig leg skin 300-500 μm, phosphate buffer pH 6.2, 32° C., 48 hours, mean of cells 1-3
Description: The in vitro permeation of compound 1 through pig skin from saturated solution (f1) and from a patch (f2) was investigated.
(§1) For the permeation experiments horizontal cells with an acceptor and donor volume of approx. 23 mL of phosphate buffer pH 6.2 were used. The donor cells contained saturated solutions of compound 1 (2 mg/mL) in phosphate buffer pH 6.2. The experiments were performed at a temperature of 32° C. and the acceptor and donor media were slowly stirred. For the study pig leg skin with thickness of 300-500 μm were used. The experiments were performed in triplicate (n=3) over a period of 48 hours. During this time period six samples at different time points (after 2, 4, 6, 8, 24 and 48 hours) were taken. After each individual incubation period the concentration of the test compound in the acceptor medium was analysed by HPLC at 275 nm, 20° C., flow rate 2.0 mL/min in acetonitrile/water/TFA.
Evaluation: The concentration of the test compound in the acceptor medium was calculated by using an external standard solution with known concentration. Then the concentration of test compound was correlated with the incubation time by linear regression. The flux rate [μg/cm^2/h] is equivalent to the slope of the linear equation.

[5] = Saturated solution in phosphate buffer pH 6.2; type: physicochemical
Description: as §1

CCCN(CCc1cccs1)C1CCc2cccc(O)c2C1 (stereo not shown) [Compound 1, N-(8-Hydroxytetralin-2-yl)-N-propyl-N-[2-(2-thienyl)ethyl]amine]
Ki ([1]; means of 2-8 individual experiments each done as triplicate): 0.73 nM | selectivity ratio p5-HT1a ([1]; reference receptor of the ratio (=1)): 1 | selectivity ratio pα1 [2]: 230 | Ki [3]: 170 nM | agonist activity at the human 5-HT1a receptor (human 5-HT1a receptor; in words): full agonist activity | EC50 (human 5-HT1a receptor; mean values of 2-8 individual experiments): 0.65 to 1.9 nM and 1.9 nM | Emax (human 5-HT1a receptor; read-out: intrinsic activity [% rel. to serotonin]): 103% | average flux rate from saturated solution [4]: 4.0 μg/cm^2/h | concentration of saturated solution [5]: 2000 µg/mL | melting point: 99 °C
